The target of data set [1] is human PGF2α receptor (Homo sapiens, UniProt P43088). The settings on record: competitive radioligand binding, U.S. Pat. No. 8,415,480, read-out: inhibition constant (Ki); cited from earlier work.
Data set [2] has as its system pregnant women with threatened spontaneous preterm labor. The data set can be described thus: Phase II clinical trial Part B: adverse events. Format: in vivo, human. The note with it: patients undergoing atosiban infusion. Here is the method:
(§1) A total of n=58 patients were treated with compound (2) and atosiban, and n=55 patients were treated with placebo and atosiban. As in part A, patients underwent a 48-hour infusion with atosiban. On the first day of atosiban treatment, patients were administered either placebo or compound (2) in a loading dose of 1,000 mg. On subsequent days, patients were then administered either placebo or compound (2) twice daily in an amount of 500 mg per dose until delivery.
All participants received intravenous atosiban as standard-of-care therapy according to the approved product label for 48 hours. […]
Safety was assessed by way of the following outcomes: • maternal incidence of adverse events (AEs), treatment-emergent adverse events (TEAEs), clinically significant changes in laboratory safety tests, and vital signs from Day 1 until 28 days after birth; • incidence of AEs indicating fetal distress, such as growth retardation and/or changes in fetal heart rate monitoring and/or amniotic fluid index (AFI) or amniotic fluid volume (in twins); and incidence of neonates experiencing adverse events, as well as clinically significant changes in vital signs, Apgar score, weight and head circumference at birth, and a measure of neonatal morbidity from birth until 28 days after birth.

The nature of data set [3]: Phase II clinical trial Part A: plasma pharmacokinetics. The class given is in vivo, human. Here is the method: (§2) Subjects participating in Part A of the study were diagnosed with preterm labor and were already receiving an atosiban infusion for 48 hours. Compound (2) was administered orally to each subject in an amount of 500 mg twice daily for 7 days, with a loading dose of 1,000 mg on Day 1.
(§3) In Part A of the study, fetal cardiac safety was monitored using Doppler ultrasound, and compound (2) pharmacokinetics were assessed on days 1, 2, 3 and 7 of the study. Amniotic Fluid Index was monitored from days 1 to 14. Time to delivery was also assessed.

For data set [4], the system named is pregnant women with threatened spontaneous preterm labor. The data set can be described thus: Phase II clinical trial Part A: time to delivery. Format: in vivo, human. As to the method:
This example reports results of a Phase II clinical trial of compound (2) in pregnant women with threatened spontaneous preterm labor. In part A of the study, compound (2) was administered in open-label fashion to n=9 patients with gestational ages of from 28 to 34 weeks in order to assess pharmacokinetics and safety. In part B of the study, compound (2) was administered to a more expansive set of n=58 subjects in order to assess efficacy, as well as to further evaluate safety.
as §2, §3

Data set [5] has the same test system. Nature of the data set: Phase II clinical trial Part B: efficacy to delay preterm birth. The class given is in vivo, human. Here is the method:
as §1
Gestational age was confirmed by a first trimester ultrasound scan or by fertilization date. […] Subjects were required to begin treatment with atosiban within 24 hours before starting study treatment.
All participants received intravenous atosiban as standard-of-care therapy according to the approved product label for 48 hours. Treatment with study medication was to be initiated ideally simultaneously or at a maximum within 24 hours after initiating atosiban treatment. The loading dose of compound (2) was 1000 mg, with a maintenance dose of 500 mg twice a day, each 12 hours apart, for 7 days. Women allocated to the control group received the same dosing regimen with placebo. Subjects were instructed to record IMP administration in a patient diary and had to bring both opened and unopened IMP packages to each visit, in order to allow the assessment of compliance with study treatment.
Efficacy to delay preterm birth was assessed using the following outcomes: • delivery within 48 hours from start of treatment medication; • delivery within 7 days from start of treatment medication; • delivery before 37 weeks gestational age; and • time to delivery measured from start of treatment medication.
As this study was a proof-of-concept study, a primary efficacy endpoint was not prospectively defined. Other outcomes included the following: • uterine contractions assessed by electrohysterography, tocodynamometry, or abdominal palpation at each hour during the first 6 hours after start of test treatment; and • maternal plasma concentrations and pharmacokinetics of compound (1) (the active metabolite of compound (2)) and fetal cord blood concentrations at the time of delivery.
Analyses of the incidence of delivery within 2 days (48 h), within 7 days (168 h) post-compound (2) administration start, and before 37 weeks of gestational age was performed using logistic regression with treatment group as the independent variable. Strata effects (gestational age and number of fetuses) were included within the model. The treatment effect was expressed as an adjusted odds ratio with 90% confidence intervals. Treatment by strata interaction terms were explored. Other covariates explored included the pre-dose uterine contraction rate as well as the possibility of a site-to-site effect. Time to delivery measured from start of IMP administration was analyzed using Cox's proportional-hazards model. In addition, a log-rank test was performed. The analysis was performed using SAS® statistical software Version 9.4. P-values <0.10 were considered to indicate statistical significance.

For data set [6] the following is noted: relative to compound 1; cited from earlier work.
In data set [7] the test system is pregnant women with threatened spontaneous preterm labor. Nature of the data set: Phase II clinical trial Part A: safety (Doppler ultrasound, Amniotic Fluid Index, adverse events). Format: in vivo, human. As to the method: as §2, §3
Data set [8] addresses T1, Pept1 transporter protein (Homo sapiens, UniProt P46059).
T1 sequence (P46059 1-708): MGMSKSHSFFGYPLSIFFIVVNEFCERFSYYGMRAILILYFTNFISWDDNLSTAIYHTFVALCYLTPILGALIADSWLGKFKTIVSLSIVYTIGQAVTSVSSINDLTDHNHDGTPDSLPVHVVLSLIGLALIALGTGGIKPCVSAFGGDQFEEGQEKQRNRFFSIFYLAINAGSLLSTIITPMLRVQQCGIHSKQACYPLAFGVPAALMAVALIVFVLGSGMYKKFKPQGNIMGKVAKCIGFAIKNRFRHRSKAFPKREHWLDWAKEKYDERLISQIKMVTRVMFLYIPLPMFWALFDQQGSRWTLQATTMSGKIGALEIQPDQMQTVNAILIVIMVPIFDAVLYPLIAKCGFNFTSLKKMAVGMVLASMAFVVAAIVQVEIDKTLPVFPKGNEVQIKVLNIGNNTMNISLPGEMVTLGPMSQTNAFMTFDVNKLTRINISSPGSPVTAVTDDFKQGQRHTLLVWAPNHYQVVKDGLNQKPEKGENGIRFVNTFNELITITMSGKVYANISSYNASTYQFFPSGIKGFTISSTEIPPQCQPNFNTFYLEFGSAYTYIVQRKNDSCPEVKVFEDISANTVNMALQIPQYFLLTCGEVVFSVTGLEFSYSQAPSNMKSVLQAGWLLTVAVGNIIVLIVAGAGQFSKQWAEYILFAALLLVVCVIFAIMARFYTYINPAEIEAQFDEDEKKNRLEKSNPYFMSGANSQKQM
Nature of the data set: Pept1 transporter substrate assessment. The class given is in vitro ADME. The note with it: compound 2 and salts thereof. An excerpt: Compound 2 is de-esterified by ambient esterases in the small intestine and subsequently penetrates the small intestinal epithelium passively. […] Pept1 is known to mediate the absorption of a variety of valinate esters, as described, for example, in Vig et al., Adv. Drug Deliv. Rev. 65:1370-1385 (2013). […] Despite the presence the valinate ester functionality, compound 2 and salts thereof are not dependent upon this transporter for absorption across the small intestinal epithelium. […] Rather, compound 2 and salts thereof are converted in vivo to a form that is readily absorbed in a manner independent of energy and local proton gradient. This beneficial property, coupled with the high aqueous solubility of compound I and salts thereof, fosters a pharmacokinetic profile in which compound 2 and salts thereof readily dissolve in an aqueous environment and are in turn converted into a form capable of transported-independent absorption.

Data set [9] in a line: crystal form stability and hygroscopicity. The class given is physicochemical. The text has this: For example, this compound is readily crystallized using a several distinct experimental procedures. Compound 3 assumes a single, reproducible crystal form upon crystallization from a variety of media and under different ambient conditions. […] For instance, impurities associated with atmospheric water are not readily integrated into the crystalline form of compound 3.

pKi: −log10 of the molar value.

Chain of human PGF2α receptor (P43088 whole entry, the tested form may be a part): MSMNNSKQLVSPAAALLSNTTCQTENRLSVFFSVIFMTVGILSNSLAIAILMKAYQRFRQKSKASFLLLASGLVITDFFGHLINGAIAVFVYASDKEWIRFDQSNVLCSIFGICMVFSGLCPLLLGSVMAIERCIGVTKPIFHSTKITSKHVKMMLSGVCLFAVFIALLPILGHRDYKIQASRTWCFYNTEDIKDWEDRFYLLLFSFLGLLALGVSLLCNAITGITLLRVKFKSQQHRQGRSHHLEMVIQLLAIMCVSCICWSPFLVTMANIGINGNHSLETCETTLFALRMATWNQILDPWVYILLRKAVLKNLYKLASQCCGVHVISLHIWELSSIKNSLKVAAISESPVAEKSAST

Usually pKi stands for the negative decadic logarithm of the Ki, by convention in mol/L. Take `O=C(N[C@@H](CCO)c1ccc(F)cc1)C1SCCN1S(=O)(=O)c1ccc(-c2ccccc2)cc1` (stereo in doubt) [Compound 1, 3-([1,1′-biphenyl]-4-ylsulfonyl)-N-[1-(4-fluorophenyl)-3-hydroxypropyl]-1,3-thiazolidine-2-carboxamide]: the pKi in data set [1] is 8.22.

Regarding `CC(C)[C@H](N)C(=O)OCC[C@H](NC(=O)[C@@H]1SCCN1S(=O)(=O)c1ccc(-c2ccccc2)cc1)c1ccc(F)cc1` [compound (2), (3S)-3-({[(2S)-3-(biphenyl-4-ylsulfonyl)-1,3-thiazolidin-2-yl]carbonyl}-amino)-3-(4-fluorophenyl)propyl L-valinate], in [2], the “adverse events compared with placebo” value is “fewer adverse events”. For the same compound, the “plasma concentrations and pharmacokinetic parameters compared with non-pregnant women” value in [3] (Part A) is listed as “similar”; in [3] (Part A, listed as Compound (2)) it was “comparable”. Moreover, the “day on which steady-state concentrations were achieved” value in [3] (Part A, 1,000 mg loading dose on Day 1) is 1 days. The “absorption (plasma concentration vs. time profiles)” value in [3] (Part A, oral, day 1 to day 7, on atosiban) is reported as “well absorbed”. Besides, the “patients that did not deliver within 7 days of administration” value in data set [4] (9 singleton patients, 1,000 mg loading then 500 mg twice daily oral 7 days, on 48 h atosiban infusion) is recorded as 8 patients. The “Mean±SD time to delivery” value in data set [4] (9 singleton patients, oral compound (2) 7 days, on atosiban infusion) was determined as 41 ± 23 days. Also, the “OR (90% CI), delivery ≤48 h” value is reported as 0.52 in data set [5] (all women, atosiban + compound (2) vs atosiban + placebo, adjusted odds ratio); 0.39 in data set [5] (singletons only, vs atosiban + placebo); 2.05 in data set [5] (twins only, vs atosiban + placebo). Moreover, the “OR (90% CI), delivery ≤7 days” value in data set [5] (all women, vs atosiban + placebo) turned out to be 1.00; in data set [5] (singletons only, GA 24 to 30 wks at BL, vs atosiban + placebo) it was 0.53. Besides, the “reduction in uterine contractions relative to baseline” value in [5] (in combination with atosiban, vs atosiban and placebo (FIG. 7)) is reported as “more sustained reduction”. Moreover, the “delivery rate within 7 days” value in data set [5] (singleton pregnancy, 24 to 30 weeks GA) is given as 14.3%. Further, the “solubility in water and in FeSSIF and FaSSIF media” value in data set [6] was “improvements”. Further, in data set [7], the “adverse events reported for the fetuses” value is “No adverse events”. In data set [7] (days 1 to 14 (FIG. 3)), the “Amniotic Fluid Index” value was “no clinically significant changes”. Also, the “Doppler ultrasound findings, effect on the ductus arteriosus” value in [7] (fetal cardiac safety) is on record as “no constrictive effect on the ductus arteriosus”. The tolerability result in data set [7] (oral administration for 7 days, women receiving atosiban) is on record as “well tolerated”. Also, the “ductus arteriosus Pulsatility Index” value in data set [7] (over the dosing period (FIG. 2)) was “did not decrease”. Further, in data set [8], the “substrate for the Pept1 transporter protein” value is “not substrates”.

On to `CC(C)[C@H](N)C(=O)OCC[C@H](NC(=O)[C@@H]1SCCN1S(=O)(=O)c1ccc(-c2ccccc2)cc1)c1ccc(F)cc1.Cl` [Compound 3, (3S)-3-({[(2S)-3-(biphenyl-4-ylsulfonyl)-1,3-thiazolidin-2-yl]carbonyl}-amino)-3-(4-fluorophenyl)propyl L-valinate hydrochloride], for which, in [9], the hygroscopicity result was “low hygroscopicity”. Also, the “stability of crystal form” value in [9] (ambient conditions and elevated relative humidity) is recorded as “extended stability”.

The values above are taken from patent publication US20240024294A1, “COMPOSITIONS AND METHODS FOR THE TREATMENT OR PREVENTION OF PRETERM LABOR” (XOMA (US) LLC, priority 2020, published 2024).
